A value given as a limit tells only on which side of the number the result lay.

The target of this test is T1, GlyT1 (Homo sapiens, UniProt P48067).
T1 construct: expressed in transfected cells
T1 sequence (P48067 1-706): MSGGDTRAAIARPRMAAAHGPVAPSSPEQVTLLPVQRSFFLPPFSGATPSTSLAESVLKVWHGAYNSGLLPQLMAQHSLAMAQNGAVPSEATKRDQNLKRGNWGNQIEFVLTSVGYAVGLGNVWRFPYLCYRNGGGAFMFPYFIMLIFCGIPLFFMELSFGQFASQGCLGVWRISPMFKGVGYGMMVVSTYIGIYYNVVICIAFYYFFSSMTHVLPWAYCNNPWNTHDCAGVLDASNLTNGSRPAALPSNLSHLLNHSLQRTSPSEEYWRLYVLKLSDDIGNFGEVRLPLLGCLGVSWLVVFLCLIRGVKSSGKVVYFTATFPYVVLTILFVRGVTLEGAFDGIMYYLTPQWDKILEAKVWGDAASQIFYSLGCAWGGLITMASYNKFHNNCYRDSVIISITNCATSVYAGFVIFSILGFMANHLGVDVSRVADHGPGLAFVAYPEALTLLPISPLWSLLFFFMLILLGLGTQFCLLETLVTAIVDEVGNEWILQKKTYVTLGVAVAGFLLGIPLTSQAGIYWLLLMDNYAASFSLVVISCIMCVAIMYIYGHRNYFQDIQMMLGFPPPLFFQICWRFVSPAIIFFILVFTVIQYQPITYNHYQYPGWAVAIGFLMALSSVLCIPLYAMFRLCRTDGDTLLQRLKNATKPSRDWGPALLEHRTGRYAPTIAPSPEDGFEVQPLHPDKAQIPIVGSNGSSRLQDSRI
Nature of the test: Glycine Transporter 1 (GlyT1) uptake assay, scintillation proximity assay of [14C]-glycine uptake. Type of test: cell-based. The settings on record: [14C]-glycine uptake; read-out: GlyT1 (pIC50) (converted). How it is done: Glycine Transporter 1 (GlyT1) Uptake Assay
HEK293 cells stably expressing hGlyT1c were plated onto 96-well Cytostar plates at a density of 4.5×10^4 cells per well in 100 μL of growth media (DMEM containing 10% fetal bovine serum) and incubated overnight in a 37° C., 10% CO2 incubator. The following day, stock compounds in 10 mM DMSO were serially diluted in DMSO, and 2× compound solutions were prepared by diluting compound again (1:100) in HBSS. […] Plates were then read on a MicroBeta plate counter (Perkin Elmer). Dose-response data for tested compounds were analyzed and curves were fit using a four parameter logistic fit to determine IC50 values. […]
Background: Scintillation proximity formats need no separation of bound from free tracer.

Regarding `COc1c(C#N)ccc(OC(C)C(F)(F)F)c1C(=O)N1CC(c2ccccc2C(F)(F)F)C1` (stereo not drawn) [Example 90, 2-Methoxy-3-({3-[2-(trifluoromethyl)phenyl]azetidin-1-yl}carbonyl)-4-[(1,1,1-trifluoropropan-2-yl)oxy]benzonitrile], the IC50 was < 100 nM.

Consider `CC(Oc1ccc(C#N)c(Cl)c1C(=O)N1CC(c2ccc(C#N)cc2)C1)C(F)(F)F` (stereo not drawn) [Example 79, 2-Chloro-3-{[3-(4-cyanophenyl)azetidin-1-yl]carbonyl}-4-[(1,1,1-trifluoropropan-2-yl)oxy]benzonitrile], for which the IC50 was 1000 to 10000 nM. As to `COc1c(C#N)ccc(O[C@@H](C)C(F)(F)F)c1C(=O)N1CC(c2ccc(C(F)(F)F)cn2)C1` [Example 34, 2-Methoxy-3-({3-[5-(trifluoromethyl)pyridin-2-yl]azetidin-1-yl}carbonyl)-4-{[(2S)-1,1,1-trifluoropropan-2-yl]oxy}benzonitrile], the IC50 is 100 to 1000 nM. As for `COc1c(S(C)(=O)=O)ccc(O[C@@H](C)C(F)(F)F)c1C(=O)N1CC(Oc2cc(F)ccc2F)C1` [Example 205, 3-(2,5-Difluorophenoxy)-1-(3-methanesulfonyl-2-methoxy-6-{[(2S)-1,1,1-trifluoropropan-2-yl]oxy}benzoyl)azetidine], the figure is < 100 nM; as for `COc1c(S(C)(=O)=O)ccc(O[C@@H](C)C(F)(F)F)c1C(=O)N1CC(c2cc(F)ccc2F)C1` [Example 41, 3-(2,5-Difluorophenyl)-1-(3-methanesulfonyl-2-methoxy-6-{[(2S)-1,1,1-trifluoropropan-2-yl]oxy}benzoyl)azetidine], 100 to 1000 nM; as for `COc1c(C#N)ccc(O[C@@H](C)C(F)(F)F)c1C(=O)N1CC(Cc2ccc(C(F)(F)F)cc2)C1` [Example 181, 2-Methoxy-3-[(3-{[4-(trifluoromethyl)phenyl]methyl}azetidin-1-yl)carbonyl]-4-{[(2S)-1,1,1-trifluoropropan-2-yl]oxy}benzonitrile], 100 to 1000 nM.

As for `CC(Oc1ccc(C#N)c(Cl)c1C(=O)N1CC(c2ccc(Cl)cc2)C1)C(F)(F)F` (stereo not drawn) [Example 83, 2-Chloro-3-{[3-(4-chlorophenyl)azetidin-1-yl]carbonyl}-4-[(1,1,1-trifluoropropan-2-yl)oxy]benzonitrile], the IC50 was 100 to 1000 nM. As to `CCS(=O)(=O)c1ccc(OC(C)C)c(C(=O)N2CC(Oc3c(F)cc(F)cc3F)C2)c1OC` [Example 244, 1-[3-(Ethanesulfonyl)-2-methoxy-6-(propan-2-yloxy)benzoyl]-3-(2,4,6-trifluorophenoxy)azetidine], the IC50 was < 100 nM.

Take `COc1c(C#N)ccc(O[C@@H](C)C(F)(F)F)c1C(=O)N1CC(Cc2ccc(F)cc2)C1` [Example 37, 3-({3-[(4-Fluorophenyl)methyl]azetidin-1-yl}carbonyl)-2-methoxy-4-{[(2S)-1,1,1-trifluoropropan-2-yl]oxy}benzonitrile]: the IC50 is 1000 to 10000 nM. In the case of `COc1c(C#N)ccc(O[C@@H](C)C(F)(F)F)c1C(=O)N1CC(c2ccc(Cl)cc2)C1` [Example 32, 3-{[3-(4-Chlorophenyl)azetidin-1-yl]carbonyl}-2-methoxy-4-{[(2S)-1,1,1-trifluoropropan-2-yl]oxy}benzonitrile], the IC50 was 100 to 1000 nM.

As to `COc1c(S(C)(=O)=O)ccc(O[C@@H](C)C(F)(F)F)c1C(=O)N1CC(c2cccc(F)c2Cl)C1` [Example 253, 3-(2-Chloro-3-fluorophenyl)-1-(3-methanesulfonyl-2-methoxy-6-{[(2S)-1,1,1-trifluoropropan-2-yl]oxy}benzoyl)azetidine], the IC50 was < 100 nM. On to `COc1c(S(C)(=O)=O)ccc(OCC(F)(F)F)c1C(=O)N1CC(c2ccc3ncoc3c2)C1` [Example 247, 6-{1-[3-Methanesulfonyl-2-methoxy-6-(2,2,2-trifluoroethoxy)benzoyl]azetidin-3-yl}-1,3-benzoxazole], for which the IC50 was < 100 nM.

On to `CC(Oc1ccc(C#N)c(Cl)c1C(=O)N1CC(c2cccc(C(F)(F)F)c2)C1)C(F)(F)F` (stereo not drawn) [Example 85, 2-Chloro-3-({3-[3-(trifluoromethyl)phenyl]azetidin-1-yl}carbonyl)-4-[(1,1,1-trifluoropropan-2-yl)oxy]benzonitrile], for which the IC50 is 100 to 1000 nM. On to `COc1c(C#N)ccc(C2(F)CCOCC2)c1C(=O)N1CC(Oc2ccc(F)cc2)C1` [Example 26, 4-(4-Fluorooxan-4-yl)-3-{[3-(4-fluorophenoxy)azetidin-1-yl]carbonyl}-2-methoxybenzonitrile], for which the IC50 was 1000 to 10000 nM. With `COc1c(S(C)(=O)=O)ccc(O[C@@H](C)C(F)(F)F)c1C(=O)N1CC(c2ccc(C(F)(F)F)c(F)c2)C1` [Example 141, 3-[3-Fluoro-4-(trifluoromethyl)phenyl]-1-(3-methanesulfonyl-2-methoxy-6-{[(2S)-1,1,1-trifluoropropan-2-yl]oxy}benzoyl)azetidine], the IC50 was 100 to 1000 nM.

`COc1c(S(C)(=O)=O)ccc(O[C@@H](C)C(F)(F)F)c1C(=O)N1CC(Oc2c(C)cccc2C)C1` [Example 45, 3-(2,6-Dimethylphenoxy)-1-(3-methanesulfonyl-2-methoxy-6-{[(2S)-1,1,1-trifluoropropan-2-yl]oxy}benzoyl)azetidine]: the IC50 was 1000 to 10000 nM.

As to `COc1c(C#N)ccc(OC(C)C(F)(F)F)c1C(=O)N1CC(c2ccc(Cl)cc2)C1` (stereo not drawn) [Example 97, 3-{[3-(4-Chlorophenyl)azetidin-1-yl]carbonyl}-2-methoxy-4-[(1,1,1-trifluoropropan-2-yl)oxy]benzonitrile], the IC50 was 100 to 1000 nM. As for `COc1c(C#N)ccc(O[C@@H](C)C(F)(F)F)c1C(=O)N1CC(c2ccc(C3CCOCC3)cc2)C1` [Example 158, 2-Methoxy-3-{3-[4-(oxan-4-yl)phenyl]azetidine-1-carbonyl}-4-{[(2S)-1,1,1-trifluoropropan-2-yl]oxy}benzonitrile], the figure is < 100 nM; as for `COc1c(S(C)(=O)=O)ccc(OCC(F)(F)F)c1C(=O)N1CC(c2ccc(C#N)cc2Cl)C1` [Example 237, 3-Chloro-4-{1-[3-methanesulfonyl-2-methoxy-6-(2,2,2-trifluoroethoxy)benzoyl]azetidin-3-yl}benzonitrile], < 100 nM. Take `COc1c(C#N)ccc(O[C@@H](C)C(F)(F)F)c1C(=O)N1CC(c2ccc(C#N)c(F)c2Cl)C1` [Example 124, 3-Chloro-4-{1-[(3-cyano-2-methoxy-6-{[(2S)-1,1,1-trifluoropropan-2-yl]oxy}phenyl)carbonyl]azetidin-3-yl}-2-fluorobenzonitrile]: the IC50 was < 100 nM.

Consider `COc1c(C#N)ccc(OC(C)C(F)(F)F)c1C(=O)N1CC(c2ccncc2)C1` (stereo not drawn) [Example 75, 2-Methoxy-3-{[3-(pyridin-4-yl)azetidin-1-yl]carbonyl}-4-[(1,1,1-trifluoropropan-2-yl)oxy]benzonitrile], for which the IC50 is 1000 to 10000 nM. Regarding `CC(Oc1ccc(C#N)c(Cl)c1C(=O)N1CC(c2ccc(C(F)(F)F)cc2)C1)C(F)(F)F` (stereo not drawn) [Example 63, 2-Chloro-3-({3-[4-(trifluoromethyl)phenyl]azetidin-1-yl}carbonyl)-4-[(1,1,1-trifluoropropan-2-yl)oxy]benzonitrile], the IC50 is 100 to 1000 nM. On to `COc1c(S(C)(=O)=O)ccc(OC(C)C(F)(F)F)c1C(=O)N1CC(c2cc(F)cc(F)c2)C1` (stereo not drawn) [Example 182, 3-(3,5-Difluorophenyl)-1-({3-methanesulfonyl-2-methoxy-6-[(1,1,1-trifluoropropan-2-yl)oxy]phenyl}carbonyl)azetidine], for which the IC50 is 100 to 1000 nM. `COc1c(S(C)(=O)=O)ccc(O[C@@H](C)C(F)(F)F)c1C(=O)N1CC(c2cc(Cl)ccc2F)C1` [Example 251, 3-(5-Chloro-2-fluorophenyl)-1-(3-methanesulfonyl-2-methoxy-6-{[(2S)-1,1,1-trifluoropropan-2-yl]oxy}benzoyl)azetidine]: the IC50 was < 100 nM.

`COc1c(S(C)(=O)=O)ccc(O[C@H](C)C(F)(F)F)c1C(=O)N1CC(c2ccc(C3CCC(F)(F)CC3)cc2)C1` [Example 167, 3-[4-(4,4-Difluorocyclohexyl)phenyl]-1-(3-methanesulfonyl-2-methoxy-6-{[(2R)-1,1,1-trifluoropropan-2-yl]oxy}benzoyl)azetidine]: the IC50 was < 100 nM.

Consider `CCS(=O)(=O)c1ccc(OC(C)C)c(C(=O)N2CC(c3ncc(C(F)(F)F)cc3Cl)C2)c1OC` [Example 243, 3-Chloro-2-{1-[3-(ethanesulfonyl)-2-methoxy-6-(propan-2-yloxy)benzoyl]azetidin-3-yl}-5-(trifluoromethyl)pyridine], for which the IC50 was 100 to 1000 nM. Turning to `COc1c(S(C)(=O)=O)ccc(O[C@@H](C)C(F)(F)F)c1C(=O)N1CC(Oc2ccc(Cl)cn2)C1` [Example 233, 5-Chloro-2-{[1-(3-methanesulfonyl-2-methoxy-6-{[(2S)-1,1,1-trifluoropropan-2-yl]oxy}benzoyl)azetidin-3-yl]oxy}pyridine], the IC50 is 100 to 1000 nM.

These data come from patent publication US10040759B2, “Substituted azetidinyl compounds as GlyT1 inhibitors” (DART NEUROSCIENCE (CAYMAN) LTD., priority 2014, dated 2018).
